Laboratory results: patent US4889857A, “Quinolonecarboxylic acid compounds and pharmaceutical use thereof” (Yoshitomi Pharmaceutical Industries, Ltd., priority 1987, dated 1989)
Values after ≈ are worked out from the molar mass of the structure shown. Like-named read-outs stand apart in the source and are kept apart here.

What was measured:
[1] = test system: Staphylococcus epidermidis ATCC 12983; test: Antibacterial activity in vitro (MIC); format: cell-based
[2] = test system: Streptococcus pyogenes E-14; test: Antibacterial activity in vitro (MIC); format: cell-based
[3] = test system: Streptococcus sarivaris IFO 13956; test: Antibacterial activity in vitro (MIC); format: cell-based
[4] = test system: Acinetobacter calcoaceticus ATCC 13006; test: Antibacterial activity in vitro (MIC); format: cell-based
Procedure: (§1) The antibacterial activities in vitro (minimum inhibitory concentration, MIC, μg/ml) of the test compounds were measured according to the standard method of the Japanese Chemotherapy Society (Chemotherapy, Vol. 23, p.1126, 1974).
(§2) (Inoculum size: 10^6 cells/ml, Organisms with asterisk (*) were
(§3) cultivated in a 10% horse bloodadded medium.)

[5] = test system: Bacillus subtilis PCT 219; test: Antibacterial activity in vitro (MIC); format: cell-based
Procedure: as §1, §2, §3

[6] = test system: Citrobacter freundii IFO 12681; test: Antibacterial activity in vitro (MIC); format: cell-based; details: IFO12681, inoculum 10^6 cells/ml
Procedure: as §1, §2, §3

[7] = test system: Corynebacterium diphtheriae Tronto; test: Antibacterial activity in vitro (MIC); format: cell-based
Procedure: as §1, §2, §3

[8] = test system: Escherichia coli NIHJ JC-2; test: Antibacterial activity in vitro (MIC); format: cell-based
Procedure: as §1, §2, §3

Escherichia coli O-111 = test: Antibacterial activity in vitro (MIC); format: cell-based; details: O111, inoculum 10^6 cells/ml
Procedure: as §1, §2, §3

Escherichia coli T-7 = test: Antibacterial activity in vitro (MIC); format: cell-based; details: T7, inoculum 10^6 cells/ml
Procedure: as §1, §2, §3

Klebsiella pneumoniae DT = test: Antibacterial activity in vitro (MIC); format: cell-based
Procedure: as §1, §2, §3

[9] = test system: Morganella morganii IFO 3168; test: Antibacterial activity in vitro (MIC); format: cell-based; details: IFO3168, inoculum 10^6 cells/ml, read-out: MIC
Procedure: as §1, §2, §3

[10] = test system: Pediococcus damnosus IFO 3895; test: Antibacterial activity in vitro (MIC); format: cell-based
Procedure: as §1, §2, §3

[11] = test system: Proteus mirabilis IFO 3849; test: Antibacterial activity in vitro (MIC); format: cell-based; details: IFO3849, inoculum 10^6 cells/ml, read-out: MIC
Procedure: as §1, §2, §3

[12] = test system: Proteus vulgaris IFO 3988; test: Antibacterial activity in vitro (MIC); format: cell-based
Procedure: as §1, §2, §3

[13] = test system: Pseudomonas aeruginosa IFO 12582; test: Antibacterial activity in vitro (MIC); format: cell-based
Procedure: as §1, §2, §3

[14] = test system: Pseudomonas aeruginosa U-31; test: Antibacterial activity in vitro (MIC); format: cell-based; details: U31, inoculum 10^6 cells/ml, read-out: MIC
Procedure: as §1, §2, §3

[15] = test system: Pseudomonas putida IFO 12996; test: Antibacterial activity in vitro (MIC); format: cell-based; details: IFO12996, inoculum 10^6 cells/ml, read-out: MIC
Procedure: as §1, §2, §3

[16] = test system: Serratia marcescens IFO 12648; test: Antibacterial activity in vitro (MIC); format: cell-based
Procedure: as §1, §2, §3

Shigella flexneri EW-10 = test: Antibacterial activity in vitro (MIC); format: cell-based; details: EW10, inoculum 10^6 cells/ml
Procedure: as §1, §2, §3

Shigella sonnei EW-33 = test: Antibacterial activity in vitro (MIC); format: cell-based; details: EW33, inoculum 10^6 cells/ml
Procedure: as §1, §2, §3

[17] = test system: Shigella typhosa Boxhill-58; test: Antibacterial activity in vitro (MIC); format: cell-based
Procedure: as §1, §2, §3

[18] = test system: Staphylococcus aureus 1840; test: Antibacterial activity in vitro (MIC); format: cell-based
Procedure: as §1, §2, §3

[19] = test system: Staphylococcus aureus FDA 209P; test: Antibacterial activity in vitro (MIC); format: cell-based; details: FDA209P
Procedure: as §1, §2, §3

[20] = test system: Staphylococcus epidermidis ATCC 12228; test: Antibacterial activity in vitro (MIC); format: cell-based
Procedure: as §1, §2, §3

[21] = test system: Streptococcus lactis IFO 12546; test: Antibacterial activity in vitro (MIC); format: cell-based; details: Lactococcus lactis, IFO12546; inoculum 10^6 cells/ml; 10% horse blood-added medium; read-out: MIC
Procedure: as §1, §2, §3

[22] = test system: Streptococcus sp. IFO 3535; test: Antibacterial activity in vitro (MIC); format: cell-based; details: IFO3535, inoculum 10^6 cells/ml, 10% horse blood-added medium, read-out: MIC
Procedure: as §1, §2, §3

[23] = test system: Streptococcus viridans America; test: Antibacterial activity in vitro (MIC); format: cell-based
Procedure: as §1, §2, §3

[24] = test system: Xanthomonas maltophilia IFO 12690; test: Antibacterial activity in vitro (MIC); format: cell-based; details: Stenotrophomonas maltophilia, IFO12690; inoculum 10^6 cells/ml
Procedure: as §1, §2, §3

[25] = test system: Alcaligenes faecalis NCTC 415; test: Antibacterial activity in vitro (MIC); format: cell-based; details: NCTC415, inoculum 10^6 cells/ml
S. aureus 109(MRSA) = test: Protective effect against experimental infection in mice; format: in vivo; details: oral, 1 h after i.p. inoculation of 4.93 × 10^8 cells/mouse [5.7 LD50] with mucin; survival day 7; 95% confidence limit
Procedure: (§4) Experimental infection was caused by inoculating male mice intraperitoneally with each organism. Each of the test compounds was administered orally to the mice, one hour after the inoculation. The therapeutic effect of each compounds was judged by using a 50% effective dose (ED50) from the survival rate on day 7 after injection by the Probit method as described in Proc. Soc. Exp. Biol. Med., Vol. 57, p.261-264, 1944. The Minimum inhibitory concentrations (MIC) were also measured.
(§5) (The overnight cultures of test organisms with an asterisk (*) were
(§6) diluted with 50% mucin and 0.5 ml of each was injected intraperitoneally
(§7) into mice. A double asterisk (**) means a 95% confidence limit. MRSA mean
(§8) methycillinresistant Staphylococcus aureus.)

S. aureus Smith = test: as above; format: in vivo; details: oral, 1 h after i.p. inoculation of 2.13 × 10^6 cells/mouse [792 LD50] with mucin; survival day 7; 95% confidence limit
Procedure: as §4, §5, §6, §7, §8

S. pneumoniae Type III = test: as above; format: in vivo; details: oral, 1 h after i.p. inoculation of 6.0 × 10^2 cells/mouse [12 LD50]; survival day 7; 95% confidence limit
Procedure: as §4, §5, §6, §7, §8

S. pyogenes C-203 = test: as above; format: in vivo; details: oral, 1 h after i.p. inoculation of 4.42 × 10^4 cells/mouse [680 LD50]; survival day 7; 95% confidence limit
Procedure: as §4, §5, §6, §7, §8

[26] = inoculum 10^6 cells/ml, 10% horse blood-added medium, read-out: MIC
[27] = inoculum 10^6 cells/ml, read-out: MIC

CNCC1CN(c2c(F)cc3c(=O)c(C(=O)O)cn(C4CC4)c3c2F)CCO1 (centres unmarked) [Compound A, 1-cyclopropyl-6,8-difluoro-1,4,-dihydro-7-[2-(methylaminomethyl)morpholino]-4-oxoquinoline-3-carboxylic acid]
MIC ([1]; ATCC12983): 0.05 µg/mL (≈ 0.127 µM) | MIC ([2]; E14): 0.1 µg/mL (≈ 0.254 µM) | MIC ([3]; IFO13956): 0.2 µg/mL (≈ 0.508 µM) | MIC ([4]; ATCC13006): 0.39 µg/mL (≈ 0.991 µM) | MIC ([5]; PCT219, inoculum 10^6 cells/ml, read-out: MIC): 0.012 µg/mL (≈ 0.0305 µM) | MIC [6]: 0.2 µg/mL (≈ 0.508 µM) | MIC [7]: 0.025 µg/mL (≈ 0.0636 µM) | MIC ([8]; NIHJJC2): 0.1 µg/mL (≈ 0.254 µM) | MIC (Escherichia coli O-111): 0.2 µg/mL (≈ 0.508 µM) | MIC (Escherichia coli T-7): 0.1 µg/mL (≈ 0.254 µM) | MIC (Klebsiella pneumoniae DT): 0.2 µg/mL (≈ 0.508 µM) | MIC [9]: 1.56 µg/mL (≈ 3.97 µM) | MIC ([10]; IFO3895): 0.39 µg/mL (≈ 0.991 µM) | MIC [11]: 1.56 µg/mL (≈ 3.97 µM) | MIC ([12]; IFO3988): 0.78 µg/mL (≈ 1.98 µM) | MIC ([13]; IFO12582): 3.13 µg/mL (≈ 7.96 µM) | MIC [14]: 1.56 µg/mL (≈ 3.97 µM) | MIC [15]: 1.56 µg/mL (≈ 3.97 µM) | MIC ([16]; IFO12648): 0.78 µg/mL (≈ 1.98 µM) | MIC (Shigella flexneri EW-10): 0.025 µg/mL (≈ 0.0636 µM) | MIC (Shigella sonnei EW-33): 0.025 µg/mL (≈ 0.0636 µM) | MIC [17]: 0.05 µg/mL (≈ 0.127 µM) | MIC [18]: 0.1 µg/mL (≈ 0.254 µM) | MIC [19]: 0.025 µg/mL (≈ 0.0636 µM) | MIC ([20]; ATCC12228): 0.05 µg/mL (≈ 0.127 µM) | MIC [21]: 1.56 µg/mL (≈ 3.97 µM) | MIC [22]: 1.56 µg/mL (≈ 3.97 µM) | MIC [23]: 0.2 µg/mL (≈ 0.508 µM) | MIC [24]: 0.1 µg/mL (≈ 0.254 µM) | MIC [25]: 1.56 µg/mL (≈ 3.97 µM) | ED50 (S. aureus 109(MRSA)): 0.061(0.041-0.093) mg/mouse | ED50 (S. aureus Smith): 0.068(0.044-0.104) mg/mouse | ED50 (S. pneumoniae Type III): 0.707(0.453-1.104) mg/mouse | ED50 (S. pyogenes C-203): 0.214(0.124-0.388) mg/mouse

CC1COc2c(N3CCN(C)CC3)c(F)cc3c(=O)c(C(=O)O)cn1c23 (centres unmarked) [OFLX, 9-fluoro-3-methyl-10-(4-methyl-1-piperazinyl)-7-oxo-2,3-dihydro-7H-pyrido[1,2,3-de][1,4]-benzoxazine-6-carboxylic acid]
MIC ([1]; ATCC12983, inoculum 10^6 cells/ml, 10% horse blood-added medium, read-out: MIC): 0.39 µg/mL (≈ 1.08 µM) | MIC ([2]; E14, inoculum 10^6 cells/ml, 10% horse blood-added medium, read-out: MIC): 0.78 µg/mL (≈ 2.16 µM) | MIC ([3]; IFO13956, inoculum 10^6 cells/ml, 10% horse blood-added medium, read-out: MIC): 3.13 µg/mL (≈ 8.66 µM) | MIC ([4]; ATCC13006, inoculum 10^6 cells/ml, read-out: MIC): 0.2 µg/mL (≈ 0.553 µM) | MIC ([5]; PCT219): 0.05 µg/mL (≈ 0.138 µM) | MIC [6]: 0.05 µg/mL (≈ 0.138 µM) | MIC [7, 26]: 0.2 µg/mL (≈ 0.553 µM) | MIC ([8]; NIHJJC2, inoculum 10^6 cells/ml, read-out: MIC): 0.1 µg/mL (≈ 0.277 µM) | MIC (Escherichia coli O-111): 0.05 µg/mL (≈ 0.138 µM) | MIC (Escherichia coli T-7): 0.05 µg/mL (≈ 0.138 µM) | MIC (Klebsiella pneumoniae DT; [27]): 0.1 µg/mL (≈ 0.277 µM) | MIC [9]: 0.1 µg/mL (≈ 0.277 µM) | MIC ([10]; IFO3895, inoculum 10^6 cells/ml, 10% horse blood-added medium, read-out: MIC): 0.2 µg/mL (≈ 0.553 µM) | MIC [11]: 0.39 µg/mL (≈ 1.08 µM) | MIC ([12]; IFO3988, inoculum 10^6 cells/ml, read-out: MIC): 0.1 µg/mL (≈ 0.277 µM) | MIC ([13]; IFO12582, inoculum 10^6 cells/ml, read-out: MIC): 1.56 µg/mL (≈ 4.32 µM) | MIC [14]: 0.78 µg/mL (≈ 2.16 µM) | MIC [15]: 1.56 µg/mL (≈ 4.32 µM) | MIC ([16]; IFO12648, inoculum 10^6 cells/ml, read-out: MIC): 0.2 µg/mL (≈ 0.553 µM) | MIC (Shigella flexneri EW-10): 0.05 µg/mL (≈ 0.138 µM) | MIC (Shigella sonnei EW-33): 0.025 µg/mL (≈ 0.0692 µM) | MIC [17]: 0.025 µg/mL (≈ 0.0692 µM) | MIC [18, 27]: 1.56 µg/mL (≈ 4.32 µM) | MIC [19, 27]: 0.2 µg/mL (≈ 0.553 µM) | MIC ([20]; ATCC12228, inoculum 10^6 cells/ml, 10% horse blood-added medium, read-out: MIC): 0.2 µg/mL (≈ 0.553 µM) | MIC [21]: 6.25 µg/mL (≈ 17.3 µM) | MIC [22]: 3.13 µg/mL (≈ 8.66 µM) | MIC [23, 26]: 1.56 µg/mL (≈ 4.32 µM) | MIC [24]: 0.05 µg/mL (≈ 0.138 µM) | MIC [25]: 0.78 µg/mL (≈ 2.16 µM) | ED50 (S. aureus 109(MRSA)): 0.459(0.257-0.661) mg/mouse | ED50 (S. aureus Smith): 0.380(0.253-0.601) mg/mouse | ED50 (S. pneumoniae Type III): > 2 mg/mouse | ED50 (S. pyogenes C-203): 1.432(1.006-2.393) mg/mouse
